Source: ChEMBL document CHEMBL1142282, “Asymmetric synthesis and stereochemical structure-activity relationship of (R)- and (S)-8-[1-(2,4-dichlorophenyl)-2-imidazol-1-yl-ethoxy] octanoic acid heptyl ester, a potent inhibitor of allene oxide synthase” (Bioorg Med Chem, 2008)

Tests used:
[1] = Inhibition of arabidopsis recombinant allene oxide synthase; conditions: read-out: I50
[2] = Binding affinity at arabidopsis recombinant allene oxide synthase
Arabidopsis = test: Inhibition of arabidopsis recombinant allene oxide synthase at 1 uM

Row | IC50 [1] [µM] | Kd [2] [µM] | inhibition (Arabidopsis) [%] | Compound
1 | 0.95 | 4.8 | 50 | CCCCCCCOC(=O)CCCCCCCO[C@H](Cn1ccnc1)c1ccc(Cl)cc1Cl
2 | 0.005 | 1.4 | 93 | CCCCCCCOC(=O)CCCCCCCO[C@@H](Cn1ccnc1)c1ccc(Cl)cc1Cl
